In brackets after ≈: the same amount, converted by molar mass. Where two headings read alike, the source gives them in different places. Non-standard residues stand in square brackets, D forms with d. Residues, ends and D or L forms follow the SMILES beside them. Ahx = NCCCCCC(=O)O; βAla = NCCC(=O)O
How the values were obtained:
[1] = test system: S. suis serotype 2 strain SC070731; format: cell-based, Streptococcus suis
Method: The broth microdilution method was employed to determine the MIC values, following a previous study and a recently published protocol with a few modifications. In brief, an overnight S. suis serotype 2 strain SC070731 culture was diluted 100-fold in fresh THB and grown to an OD600nm of 0.6. Subsequently, the bacterial suspension was further diluted 2000-fold in fresh Mueller–Hinton broth (MHB) to a final concentration of approximately 1 × 10^5 CFU/mL. Then, 180 µL of the bacterial solution was transferred into a 96-well plate. Immediately, 20 µL of a 10× peptides, PNAs, or CPP-PNA conjugates working solution was added. As a negative control, an equivalent volume of water was added instead. The plate was then incubated at 37 °C with 5% CO2 for 18 h, and the growth was periodically monitored by measuring the OD595nm every hour using a BioTek ELx800 plate reader. The MIC value was determined as the lowest concentration inhibiting visible growth in the wells (OD595nm < 0.1).

[2] = test system: S. suis serotype 2 strain SC070731 cells; assay: Cellular uptake of FITC-labeled CPPs by flow cytometry; format: cell-based, Streptococcus suis; conditions: 10 µM FITC-labeled CPP or FITC molecule, 1 h, 37 °C, PBS; flow cytometry, 50,000 events, 488 nm laser
Method: S. suis serotype 2 strain SC070731 was streaked onto THA plates and incubated at 37 °C with 5% CO2 for 12 h. A bacterial colony was picked and inoculated overnight in 2 mL of THB at 37 °C. The overnight culture was then diluted 100-fold in fresh THB and grown to an OD600nm of 0.6 (approximately 3 × 10^8 CFU/mL). The obtained culture was washed twice with PBS and resuspended in PBS. Further, 900 µL of the bacterial solution was transferred into a 2 mL tube. Immediately, 100 µL of a 10× FITC-labeled CPPs working solution was added to a final concentration of 10 µM. Controls were prepared using an equivalent volume of water or a 10× FITC molecule solution. The reaction tubes were incubated for one hour at 37 °C and 10 rpm rotation in the dark. […] The fluorescence emitted by the 640 nm laser was used to analyze the cell membrane stained with Alexa Fluor 633-WGA. In contrast, the fluorescence emitted by the 488 nm laser was used to analyze the distribution of FITC-labeled CPPs in bacterial cells. […]
As mentioned, the bacterial cells were treated with FITC-labeled CPPs and fixed with 4% paraformaldehyde. […] Bacterial cells in suspension were analyzed at a 200–300 events/s flow rate, and 50,000 events were recorded for analysis. […] The mean fluorescence intensity of FITC was analyzed using FlowJo^TM v10 software (BD Biosciences). […]

[3] = S. suis serotype 2 strain SC070731, broth microdilution in MHB, approx. 1 × 10^5 CFU/mL, 37 °C, 5% CO2, 18 h, lowest concentration inhibiting visible growth (OD595nm < 0.1)

Row | Compound | MIC [1, 3] [µM] | further results
1 | N=C(N)NCCC[C@H](NC(=O)CCCCCNC(=O)[C@H](CCCNC(=N)N)NC(=O)[C@H](CCCNC(=N)N)NC(=O)CCCCCNC(=O)[C@H](CCCNC(=N)N)NC(=O)[C@H](CCCNC(=N)N)NC(=O)CCCCCNC(=O)[C@H](CCCNC(=N)N)NC(=O)[C@H](CCCNC(=N)N)NC(=O)CCCCCNC(=O)[C@@H](N)CCCNC(=N)N)C(=O)NCCCCCC(=O)NCCC(N)=O [(RXR)4XB] (H-R[Ahx]RR[Ahx]RR[Ahx]RR[Ahx]R[Ahx][βAla]-NH2) | – | MIC ([1]; 18 h): 4 µM (≈ 7.61 µg/mL)
2 | O=C1OC2(c3ccc(O)cc3Oc3cc(O)ccc32)c2ccc(N=C=S)cc21 [FITC molecule] | – | cells clustered in quadrant 4 (FITC-positive), share of total cells [2]: 64.80%
3 | N=C(N)NCCC[C@H](NC(=O)CN)C(=O)N[C@@H](CCCCN)C(=O)N[C@@H](CCCCN)C(=O)N[C@@H](CCCNC(=N)N)C(=O)N[C@@H](CCCNC(=N)N)C(=O)N[C@@H](CCC(N)=O)C(=O)N[C@@H](CCCNC(=N)N)C(=O)N[C@@H](CCCNC(=N)N)C(=O)N[C@@H](CCCNC(=N)N)C(=O)N[C@@H](Cc1ccc(O)cc1)C(=O)N[C@@H](CCCCN)C(N)=O [HIV-1 TAT] | >128 | –
4 | Free PNA: gyrA-specific antisense peptide nucleic acid, ttgcattatatg, without carrier peptide (TTGCATTATATG; all peptide nucleic acid (PNA); Unconjugated PNA, no carrier peptide) | >32 | –

Reference: paper PMC11350675, “Identifying Cell-Penetrating Peptides for Effectively Delivering Antimicrobial Molecules into Streptococcus suis” (Antibiotics, 2024)
